Source: patent publication US20150359794A1, “IMPAIRMENT OF THE LARGE RIBOSOMAL SUBUNIT PROTEIN RPL24 BY DEPLETION OR ACETYLATION” (Buck Institute for Research on Aging, priority 2014, published 2015)

Tested on: RPL24
Test: LC-MS/MS of RPL24 lysine acetylation (K27, K93) on 60S subunits and polysomes
Format: cell-based, human
Conditions: SKBR3 cells, TSA 1 μM, 2 h
Method: Mass spectrometry studies were performed to identify sites of lysine (K) acetylation within RPL24 induced by histone deacetylase inhibition. Continuous and discontinuous sucrose gradient fractionations were performed to isolate 60S subunits and total polysomes respectively. Polyacrylamide gel electrophoresis was then performed on 60S and polysome samples and RPL24-containing bands were excised, trypsin digested, and subjected to mass spectrometry (LC-MS/MS) (FIG. 6a). Among several detected acetylated RPL24 peptides, two were increased by TSA treatment; TDGKacVFQFLNAK (acetyl-K27) (SEQ ID NO:1) and AITGASLADIM*AKacR (acetyl-K93) (SEQ ID NO:2), where the internal lysines in both peptides are N-acetylated (Kac). As the MS experiments of the 60S polysome were performed after in-gel digestion the methionine residue of the second peptide was predominantly oxidized (M*=M+16), as commonly observed during SDS PAGE processing. In independent, in-solution digestion experiments, the corresponding non-oxidized form of acetylated peptide AITGASLADIMAKacR (SEQ ID NO:3) with correlating MS/MS fragmentation pattern was identified. Representative spectra are shown for TDGKacVFQFLNAK (acetyl-K27) (SEQ ID NO:1) and AITGASLADIM*AKacR (acetyl-K93) (SEQ ID NO:2)) (FIG. 11a,b). In 3 biological replicate experiments, the amount of K27-acetylated RPL24, normalized to total protein concentration within the 60S subunit, was increased at least 2-fold within 2 h of TSA treatment. […] Given the proximity of the T. thermophilia RPL24 K26 site (that resides in a homologous region to human K27) to eIF6 (FIG. 7a), these findings implicate involvement of the TSA induced acetylation of RPL24 at K27 in preventing 40S-60S subunit joining and 60S retention of eIF6.
To prepare polysome samples for mass spectrometry, cells are treated with a histone deacetylase inhibitor and polysome pellets are prepared using a discontinuous sucrose gradient as described above. Protein concentration is determined using the Pierce BCA Protein Assay Kit (Thermo Scientific) and equal amount of protein are trypsin digested. Acetyl-lysine immunoprecipitations are carried out on resultant peptides using an antibody from Cell Signaling Technology. Acetyl-proteins are then eluted, extracted, and desalted.
To determine the acetylation status of 60S subunit proteins, cells are treated with histone deacetylase inhibitor and polysome profiles are performed as described above. The four fractions representing the 60S subunit are identified via western blots for Rack1 and RPL24. […]
Three biological replicates of polysome or 60S samples are then analyzed by LC-MS/MS using a quadrupole time-of-flight (QqTOF) TripleTOF 5600 mass spectrometer (AB SCIEX, Dublin, Calif.) coupled to an Eksigent (Dublin, Calif.) nanoLC Ultra, 2D plus. […]

CC(/C=C/C(=O)NO)=C\[C@@H](C)C(=O)c1ccc(N(C)C)cc1 [TSA, trichostatin-A]
RPL24 K93 acetylation within the 60S subunits: not significantly changed | induction of K93 acetylation within RPL24 associated with polysomes: 2.5 fold | induction of RPL24 K27 acetylation within polysomes: no significant induction | increase of K27-acetylated RPL24 within the 60S subunit, normalized to total protein (3 biological replicates): at least 2 fold
